Measured values published in patent publication US20230357099A1, “PYRAZOLO [3,4-B] PYRIDINE-4-CARBOXAMIDE NITRIFICATION INHIBITOR” (EUROCHEM ANTWERPTEN, priority 2020, published 2023).

What was measured:
[1] = tested on: Nitrososphaera viennensis; test: Nitrification inhibition assay on Nitrososphaera viennensis (nitrite, Griess); format: cell-based, Nitrososphaera viennensis EN76T; settings: Nitrososphaera viennensis; 2.5 µM compound; structural variants outside formula (I); read-out: Relative nitrification (%) by Nitrososphaera viennensis treated with 2.5 µM compound
Experimental: Nitrite (NO2—) was measured using the Griess reagent (Product number: G4410, Griess reagent (modified), Sigma-Aldrich). Equal volumes of the sample or a diluted sample and the Griess reagent were mixed a transparent flat bottom multi-well plate and incubated in the dark at room temperature for 10 minutes. Absorbance values at 540 nm were measured spectrophotometrically (EnVision, Perkin Elmer®) and used to calculate the [NO2—] by use of a standard curve.
A liquid culture sample of Nitrososphaera viennensis EN76T was kindly supplied by prof. dr. Christa Schleper (University of Vienna). Cells were grown in fresh water medium (FWM) as described earlier by Tourna et al. (2011). All necessary materials were rinsed with 1 % HCl and washed at least 3 times with MilliQ water. FWM (pH 7.5 (KOH)) contained 17 mM NaCl, 3 mM MgCl2 × 2 H2O, 680 µM CaCl2 × 2 H2O, 1.47 mM KH2PO4 and 6.71 mM KCI. After autoclaving, successively 1 mL non-chelated trace element mixture (101 mM HCl, 488 µM H3BO3, 508 µM MnCl2 × 4 H2O, 803 µM CoCl2 × 6 H2O, 101 µM NiCl2 × 6 H2O, 12 µM CuCl2 × 2 H2O, 503 µM ZnSO4 × 7 H2O and 150 µM Na2MoO4 × 2 H2O), 1 mL Fe-NaEDTA (7.5 mM), 1 mL vitamin solution (20 mg/L biotin, 20 mg/L folic acid, 100 mg/L pyridoxine-HCl, 50 mg/L thiamine-HCl, 50 mg/L riboflavin, 50 mg/L nicotinic acid, 50 mg/L DL-pantothenic acid, 50 mg/L P-aminobenzoic acid, 2 g/L choline chloride and 10 mg/L vitamin B12), 2 mL NaHCO3 (1 M), 2 mL kanamycin (100 mg/mL), 2 mL carbenicillin (100 mg/mL), 3 mL NH4Cl (1 M), 10 mL HEPES buffer (1 M, pH 7.6) and 1 mL Na-pyruvate (0.1 M) were added aseptically. All stock-solutions were filter-sterilized, except the autoclaved non-chelated trace element mixture. Cultures were incubated aerobically at 42° C. without shaking in sterile 250-mL Erlenmeyer flasks or 30-mL cultivation tubes (Product number: 216-1290, Quickstart universal containers STERILIN®, VWR) filled with either 100 or 20 mL FWM and sealed with tape (Micropore™ Surgical Tape 1530-1, 3M™). Late-log phase cultures ([NO2-] ≥ 1 mM) were subcultivated by dilution (1:400) in fresh FWM.
7-day old 100 mL cultures grown in 250-mL Erlenmeyer flasks with a [NO2-] ≥ 1 mM were 5 times overconcentrated in fresh FWM by centrifugation (4000 rpm, 15 min, 5° C.) in 50 mL centrifuge tubes (Cat. No. 430829, CentriStar™ Conical Centrifuge Tubes, Corning®). Per batch, all the cultures were pooled in one sterile Schott bottle. Subsequently, 200 µl/well was dispensed at low pipetting speed in transparent flat bottom 96-well plates (Cat. No. 353072, Falcon® 96 Well Clear Microplate, Corning®) using 150 µl wide-bore tips (two steps of 100 µl) on a Tecan robot (Freedom EVO®, Tecan). 0.5 µl of 99.99 % DMSO (negative control - final concentration 0.25%) and 0.5 µl of 0.04 M PTIO (2-phenyl-4,4,5,5-tetramethylimidazoline-1-oxyl 3-oxide, positive control - final concentration 100 µM) were added manually to the first and last column respectively. Finally, 0.5 µl of candidate nitrification inhibitors (1 mM stock solutions in 99.99% DMSO - final concentration 2.5 µM) were added to the central wells using a pin tool on a Tecan robot (Freedom EVO®, Tecan). In between additions, the pins were washed in sequence with 99.5% DMSO, MilliQ water and 100% ethanol and air-dried. All plates were sealed with tape (Micropore™ Surgical Tape 1530-1, 3M™), stacked per 4 on top of a 96-well plate filled with 100 µl MilliQ per well and covered with aluminum foil. Position effects of the stacks within the incubator were considered. Plates were incubated at 42° C. without shaking. 24 h later, NO2— was measured spectrophotometrically at 540 nm (EnVision, Perkin Elmer®). […]

[2] = tested on: ABIL (ammonia-binding liquid inoculum), nitrifying microbial enrichment containing both AOA and AOB; test: Nitrification inhibition assay on ABIL (ammonium consumption); format: cell-based; settings: 10 µM compound; structural variants outside formula (I); read-out: Relative nitrification (%) by ABIL treated with 10 µM compound

Compound | activity at 2.5 µM [1] | activity at 10 µM [2]
CCCCc1nnc(NC(=O)c2n[nH]c3ccccc23)s1 [Example 97] | 100% | 86%
O=C(NCCc1ccccc1)c1n[nH]c2ccccc12 [Example 98] | 100% | 89%
Clc1ccc2c(Nc3ccc4[nH]ncc4c3)ncnc2c1 [Example 99] | 100% | 90%
COC(=O)c1cc(CNC(=O)c2n[nH]c3ccccc23)ccc1OC [Example 100] | 96% | 90%
COC(=O)c1n[nH]c2ccc(NS(=O)(=O)c3ccc(Cl)c(Cl)c3)cc12 [Example 101] | 94% | 90%
O=S(=O)(CCC1CC1)Nc1n[nH]c2cccc(F)c12 [Example 102] | 100% | 90%
CCC(CC)c1nnc(NC(=O)c2n[nH]c3ccccc23)s1 [Example 103] | 100% | 91%
Cc1ccc2[nH]nc(C(=O)N3CCS(=O)(=O)C(C)(C)C3)c2c1 [Example 104] | 100% | 93%
c1ccc(N2CCOCC2)c(CNc2ccc3[nH]ncc3c2)c1 [Example 105] | 100% | 94%
O=S1(=O)CCCN1c1cccc(NCc2cccc3cn[nH]c23)c1 [Example 106] | 100% | 94%
COc1ccc(S(=O)(=O)Nc2cccc3cn[nH]c23)c(NS(=O)(=O)C(F)F)c1 [Example 107] | 100% | 96%
CC(O)CCN(C)S(=O)(=O)c1ccc2cn[nH]c2c1 (stereo not drawn) [Example 108] | 100% | 97%
Cc1ccc2[nH]nc(C(=O)N3CC[S+]([O-])C(C)(C)C3)c2c1 (stereo not drawn) [Example 109] | 100% | 97%
CC(CNC(=O)c1cccc2[nH]ncc12)CC1(C)OCCO1 (stereo not drawn) [Example 110] | 100% | 97%
O=C(NC1=NCCS1)c1n[nH]c2ccccc12 [Example 111] | 95% | 98%
Fc1cccnc1N1CCC(NCc2cccc3cn[nH]c23)C1 (stereo not drawn) [Example 112] | 100% | 98%
O=S(=O)(Nc1cccc2[nH]ncc12)N1CCCCC1 [Example 113] | 100% | 98%
O=C(O)CC1CSCCN1C(=O)c1cccc2cn[nH]c12 (stereo not drawn) [Example 114] | 100% | 98%
Cc1nccc(Nc2ccc3[nH]ncc3c2)n1 [Example 115] | 96% | 98%
O=C1NCCN1c1cccc(NCc2cccc3cn[nH]c23)c1 [Example 116] | 96% | 99%
CC1(C)CN(C(=O)c2n[nH]c3ccccc23)CCS1(=O)=O [Example 117] | 100% | 99%
O=S(=O)(Nc1ccc2cn[nH]c2c1)c1ccc(S(=O)(=O)N2CCCC2)cc1 [Example 118] | 100% | 99%
O=C(CC1CCCCCC1)c1n[nH]c2ccccc12 [Example 119] | 100% | 99%
C#CCOCCC(=O)Nc1n[nH]c2c(Cl)cccc12 [Example 120] | 98% | 100%
COc1ccc(OCCC(=O)Nc2n[nH]c3ccccc23)cc1 [Example 121] | 100% | 100%
CCNC(=O)c1cccc(NC(=O)c2n[nH]c3ccccc23)c1 [Example 122] | 95% | 100%

Compound | activity at 2.5 µM [1] | activity at 10 µM [2]
O=C(c1n[nH]c2ccccc12)N1CCSCC1 [Example 123] | 92% | 100%
O=C1NC(=S)S/C1=C\c1cccc2cn[nH]c12 [Example 124] | 99% | 100%
COC(C)(C)c1noc(Cc2n[nH]c3ccccc23)n1 [Example 125] | 97% | 100%
CSCC(=O)Nc1ccc2[nH]ncc2c1 [Example 126] | 100% | 100%
CCC(CC)C(CNC(=O)c1n[nH]c2ccccc12)N1CCOCC1 (stereo not drawn) [Example 127] | 100% | 100%
COCCCCCNC(=O)Nc1ccc2[nH]ncc2c1 [Example 128] | 100% | 100%
O=C(O)CC1(CC(=O)Nc2ccc3cn[nH]c3c2)CCCCC1 [Example 129] | 100% | 100%
c1cc(CNCCc2nc(C3CC3)cs2)c2[nH]ncc2c1 [Example 130] | 94% | 100%
O=C(Nc1cccc2cn[nH]c12)c1csc(-c2ccccc2)n1 [Example 131] | 100% | 100%
O=C(NC1CCc2ccccc21)c1n[nH]c2ccccc12 (stereo not drawn) [Example 132] | 97% | 100%
CC(C)CC(CNC(=O)c1n[nH]c2ccccc12)N1CCOCC1 (stereo not drawn) [Example 133] | 100% | 100%
COC1(C(=O)Nc2ccc(-n3ncc4ccccc43)cc2)CCOC1 (stereo not drawn) [Example 134] | 100% | 100%
CS(=O)(=O)c1ccc(-c2noc(-c3cccc4[nH]ncc34)n2)cc1 [Example 135] | 100% | 100%
O=C(NCCCSc1ccccc1)c1n[nH]c2ccccc12 [Example 136] | 96% | 100%
O=C(Nc1ccc(C(=O)Nc2cccc3cn[nH]c23)cc1)c1ccccc1 [Example 137] | 98% | 100%
CC(NC(=O)C1(NC(=O)c2ccc3[nH]ncc3c2)CCCC1)C1CC1 (stereo not drawn) [Example 138] | 100% | 100%
O=S(=O)(Nc1n[nH]c2ccccc12)c1ccccc1C(F)(F)F [Example 139] | 97% | 100%
CC(C)n1ncc2ccc(NC(=O)NC3CCN(C)C3=O)cc21 (stereo not drawn) [Example 140] | 100% | 100%
O=C(c1n[nH]c2ccccc12)N1CCc2ccc(F)cc21 [Example 141] | 93% | 100%
O=C(NCC1CCCO1)c1n[nH]c2ccc(Br)cc12 (stereo not drawn) [Example 142] | 100% | 100%
CC(CNC(=O)c1cccc2cn[nH]c12)CC1(C)OCCO1 (stereo not drawn) [Example 143] | 100% | 100%
COCCn1ncc2ccc(NS(=O)(=O)c3ccc4c(c3)CCC4)cc21 [Example 144] | 100% | 100%
O=C(Nc1cccc(/C=C/c2ccccn2)c1)c1n[nH]c2ccccc12 [Example 145] | 96% | 100%
O=C(NCCCCc1ccccc1)c1n[nH]c2ccccc12 [Example 146] | 96% | 100%
O=C(NCc1ccc(F)cc1C(F)(F)F)c1cccc2cn[nH]c12 [Example 147] | 92% | 100%
